Experimental data taken from patent publication US5932709A (University of Michigan, priority 1997, dated 1999).

Assays:
in vivo = conditions: mouse, in vivo, ip
Excerpt: (§1) For all the models, the vehicle used to deliver the analog of interest was isotonic saline.
(§2) For the MX-1 human breast tumor xenograft models, the following procedure was used. Nude mice are implanted s.c. by trocar with fragments of MX-1 mammary carcinomas harvested from s.c. growing MX-1 tumors in nude mice hosts. When tumors are approximately 5 mm×5 mm in size (usually about ten days after inoculation), the animals are pair-matched into treatment and control groups. Each group contains ten tumored mice, each of which is ear-tagged and followed individually throughout the experiment. The administration of drugs or vehicle begins the day the animals are pair-matched (day 1). The doses, route of drug administration and schedule are selected as appropriate for the study in question. If the MTD dose of an agent is not known, it is determined in an initial dosing experiment in non-tumored mice. In a typical experiment, drugs are given at their MTD and 1/2 MTD doses i.p. on a daily×5 schedule.
(§3) The experiment is usually terminated when control tumors reach a size of 2-3 g. Mice are weighed twice weekly, and tumor measurements are taken by calipers twice weekly, starting on day 1. These tumor measurements are converted to mg tumor weight by a well known formula, and from these calculated tumor weights the termination date can be determined. Upon termination, all mice are weighed, sacrificed, and their tumors excised. Tumors are weighed, and the mean tumor weight per group is calculated.
(§4) Some drugs cause tumor shrinkage in the MX-1 model. With these agents, the final weight of a given tumor is subtracted from its own weight at the start of the treatment on day 1. This difference divided by the initial tumor weight is the % shrinkage. A mean % tumor shrinkage can be calculated from data from the mice in a group that experienced MX-1 regressions. If the tumor completely disappears in a mouse, this is considered a complete regression or complete tumor shrinkage. If desired, mice with partial or total tumor regressions can be kept alive past the termination date to see whether they live to become long term, tumor-free survivors.
(§5) Note that in the following table the abbreviation SR refers to tumor shrinkage rate, while those entries followed by a superscripted `2` are tumor growth inhibition rates, not tumor shrinkage rates.

[1] = tested on: MX-1 human breast tumor xenograft; assay: in vivo
Excerpt: as §1, §2, §3, §4, §5

[2] = Murine B16 melanoma model in vivo; design: species or system mouse (B6D2F1); conditions: mouse, in vivo, ip; i.p. daily×5
In short: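 B6D2F1 mice inoculated i.p. on day 0 with B16 melanoma brei taken from s.c. tumors; MTD determined in non-tumored mice when dosing is unknown. Activity expressed as T/C% of mean survival, with 60-day survivors counted as cures.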

murine P388 leukemia = assay: Murine P388 leukemia model in vivo; design: species or system mouse (B6D2F1); conditions: for Survivors: 30-day
Procedure: For the B16 melanoma model, the following procedure was used. B6D2F1 mice receive i.p. inocula of B16 murine melanoma brei prepared from B16 tumors growing s.c. in mice (day 0). […] If dosing information for agents is not available, the maximum tolerated dose (MTD) is determined in initial dose finding experiments in non-tumored mice.
The mean survival times of all groups are calculated, and results are expressed as mean survival of treated mice/mean survival of control mice (T/C)×100%. A T/C value of 150 means that the mice in the treated group lived 50% longer than those of the control group; this is sometimes referred to as the increase in life span or ILS value.
For the P388 leukemia model, the procedure followed is exactly the same as the aforementioned B16 model. The tumor inoculum is prepared by removing ascited fluid containing P388 cells from tumored B6D2F1 mice, centrifuging the cells, and then resuspending the leukemia cells in saline. Mice receive 1×10^6 P388 cells i.p. on day 0.

[3] = lower dose of 100 mg/kg (so in the source)

## CC[C@@]1(O)C(=O)OCc2c1cc1n(c2=O)Cc2c-1nc1ccccc1c2CO[C@@H]1C=C[C@H](O[C@H]2O[C@H](CO)[C@@H](O)[C@H](O)[C@H]2O)[C@@H](CO)O1 [HAR6, 7-[4-O-(α-D-glucopyranosyl)-2,3-dideoxy-α-D-erythro-hex-2-enopyranosyl]-oxymethylcamptothecin]
In vivo
  MTD: 100 mg/kg
[1]; 50 mg/kg
  mice with growth inhibition: 2
  mice with tumor shrinkage: 8
[1]; 50 mg/kg i.p. daily×5
  SR(%) (Tumor Shrinkage Rate): 81%
  Shrinkage (animals): 8/10
  Tox Deaths: 0/10
  ΔWeight (%): +2.5%
[1]; 50 mg/kg, remaining 2 animals
  tumor growth inhibition: 82%
[1]; 100 mg/kg
  body weight loss: approximately 19%
  drug-related deaths: the tenth animal died of toxicity and one
  mice with tumor shrinkage: 9
[1]; 100 mg/kg i.p. daily×5
  SR(%) (Tumor Shrinkage Rate): 94%
  Shrinkage (animals): 9/10
  Tox Deaths: 1/10
  ΔWeight (%): -18.6%
[1]; in words
  antitumor activity vs. MX-1: impressive antitumor activity vs. MX-1
[2]
  MTD: 100 mg/kg
Murine P388 leukemia; 50 mg/kg i.p. daily×5
  T/C (mean survival treated/control): 225%
  Tox Deaths: 0/10
  ΔWeight (%): -3.5%
  Survivors: 1/10
Murine P388 leukemia; 100 mg/kg
  30-day survivors (cures): three
Murine P388 leukemia; 100 mg/kg i.p. daily×5
  T/C (mean survival treated/control): 320%
  Tox Deaths: 0/10
  ΔWeight (%): -12.2%
  Survivors: 3/10
Murine P388 leukemia; at the high dose
  toxic deaths: no toxic deaths occurred
Murine P388 leukemia; at the high dose (MTD)
  weight loss: 12%-16
Murine P388 leukemia; i.p. five day schedule, in words
  efficacy vs P388 leukemia: high, curative efficacy
Murine P388 leukemia; [3]
  T/C: 225%
  cures: one
